Laboratory results from patent publication US20250214964A1, “COMPOUNDS DERIVED FROM 4-AMINO-N-(4-AMINOPHENYL) BENZAMIDE AND ANALOGUES AND USE THEREOF” (priority 2022, published 2025).

Tests used:
[1] = tested on: intracellular amastigotes of L. donovani (strain MHOM/ET/67/HU3); test: L. donovani intracellular amastigotes in THP-1-derived macrophages, resazurin method; assay type: cell-based; conditions: for SI selectivity index (EC50 THP-1/EC50 parasite (amastigote form)): THP-1 vs L. donovani amastigotes
Experimental: (§1) Furthermore, their cytotoxicity on human THP-1 cells was evaluated and the selectivity index (SI) of each compound was calculated (Table 1).

[2] = Cytotoxicity on L929 cells; assay type: cell-based; conditions: mouse
[3] = Cytotoxicity on THP-1 cells; conditions: human
Experimental: as §1

[4] = tested on: T. b. brucei drug-resistant strain B48; assay type: cell-based; conditions: for RF resistance factor (EC50 T. b. B48/EC50 T. b. s427): value in parentheses
[5] = tested on: epimastigotes of T. cruzi (CL strain lacZ); test: microbe, parasite or virus in culture; assay type: cell-based; conditions: Trypanosoma cruzi
[6] = tested on: HEK cells; test: Cytotoxicity on HEK cells; conditions: read-out: CC50 HEK; concentration that causes 50% cell death
[7] = tested on: T. b. brucei wild strain s427; test: T. b. brucei s427 bloodstream trypomastigotes, Alamar blue; assay type: cell-based
[8] = Microsomal stability, human liver microsomes, phase I; conditions: reaction time up to 120 min
[9] = Microsomal stability, mouse liver microsomes; conditions: reaction time up to 120 min

c1ccc2[nH]c(=Nc3ccc(CCc4ccc(N=c5[nH]c6ccccc6[nH]5)cc4)cc3)[nH]c2c1 [Compound 13, 4,4′-(ethane-1,2-diyl)bis(N-(1H-benzo[d]imidazol-2(3H)-ylidene)aniline)]
EC50 ([1]; Leishmania donovani, Macrophage, read-out: EC50 L. donovani intracellular amastigotes): > 10 µM

N=C(Nc1ccc(CCc2ccc(NC(=N)c3ccccn3)cc2)cc1)c1ccccn1 [Compound 17, N,N″-(ethane-1,2-diylbis(4,1-phenylene))dipicolinimidamide]
EC50 at 72 h [2]: > 200 µM | EC50 [3]: > 50 µM

N=C(N)c1ccc(OCCCCCOc2ccc(C(=N)N)cc2)cc1 [pent., Pentamidine]
RF resistance factor (EC50 T. b. B48/EC50 T. b. s427) [4]: (168)

CCCCCCCCCCCCCCCCOP(=O)([O-])OCC[N+](C)(C)C [MIL, Miltefosine]
SI selectivity index (EC50 THP-1/EC50 parasite (amastigote form)) [1]: 28.8

O=C(Cn1ccnc1[N+](=O)[O-])NCc1ccccc1 [benzn, benznidazole]
EC50 at 72 h [2]: > 200 µM | EC50 [5]: 25.3 ± 2.1 µM

O=C(Nc1ccc(N=c2[nH]c3ccccc3[nH]2)c(Cl)c1)c1ccc(N=c2[nH]c3ccccc3[nH]2)cc1Cl [Compound 1f, 4-((1H-benzo[d]imidazol-2(3H)-ylidene)amino)-N-(4-((1H-benzo[d]imidazol-2(3H)-ylidene)amino)-3-chlorophenyl)-2-clorobenzamide]
CC50 [6]: 10.2 ± 0.3 µM | SI ([7]; HEK vs T. brucei): 3.9 | EC50 ([7]; strain s427 of T. b. brucei): 2640 ± 90 nM | EC50 ([4]; strain B48 resistant to pentamidine and diminazene): 2930 ± 170 nM | RF resistance factor (EC50 T. b. B48/EC50 T. b. s427) [4]: (1.11)

C[C@@H]1[C@H](O)[C@@H](C)/C=C/C=C/C=C/C=C/C=C/C=C/C=C/[C@H](O[C@@H]2O[C@H](C)[C@@H](O)[C@H](N)[C@@H]2O)C[C@@H]2O[C@](O)(C[C@@H](O)C[C@@H](O)[C@H](O)CC[C@@H](O)C[C@@H](O)CC(=O)O[C@H]1C)C[C@H](O)[C@H]2C(=O)O [AmB, Amphotericin B]
SI selectivity index (EC50 THP-1/EC50 parasite (amastigote form)) [1]: 116.0

N=C(N)c1ccc(/N=N/Nc2ccc(C(=N)N)cc2)cc1 [dimin., Diminazene]
RF resistance factor (EC50 T. b. B48/EC50 T. b. s427) [4]: (13.1)

O=C(O)Cc1ccccc1Nc1c(Cl)cccc1Cl [diclofenac]
metabolism by human liver microsomes, in words [8]: rapidly metabolised (high intrinsic clearance) | metabolism by mouse liver microsomes (CD-1), in words [9]: slowly metabolised
